Reference: ChEMBL document CHEMBL3639096, “Bivalent inhibitors of IAP proteins and therapeutic methods using the same” (2014)

Columns and labels:
[1] = molecular target: Baculoviral IAP repeat-containing protein 2 (Homo sapiens, UniProt Q13490); experiment: (§1) For cIAP-1 BIR3 and cIAP-2 BIR3 assays, a fluorescently labeled Smac mimetic (Smac-2F) was used as the fluorescent probe. The Kd values of Smac-2F to cIAP-1 BIR3 and cIAP-2 BIR3 were determined by monitoring the total fluorescence polarization of mixtures composed with the fluorescent probe at a fixed concentration and proteins with increasing concentrations up to full saturation. Fluorescence polarization values were measured using the Infinite M-1000 plate reader (Tecan U.S., Research Triangle Park, N.C.) in Microfluor 2 96-well, black, round-bottom plates (Thermo Scientific). To each well, 1 nM of SMAC-2F and increasing concentrations of protein were added to a final volume of 125 ul in the assay buffer (100 mM potassium phosphate, pH 7.5).
[2] = molecular target: E3 ubiquitin-protein ligase XIAP (Homo sapiens, UniProt P98170); experiment: as §1
[3] = molecular target: Baculoviral IAP repeat-containing protein 3 (Homo sapiens, UniProt Q13489); experiment: as §1

| SMILES | IC50 [1] [µM] | IC50 [2] [µM] | IC50 [3] [µM] |
| --- | --- | --- | --- |
| CN[C@@H](C)C(=O)N[C@H]1CN(C(=O)NCCCCCCNC(=O)N2CC[C@H]3CC[C@@H](C(=O)NC4Cc5ccccc5C4)N3C(=O)[C@@H](NC(=O)[C@H](C)NC)C2)CC[C@H]2CCC(C(=O)NC3Cc4ccccc4C3)N2C1=O (some centres not stated) | < 10 | < 1 | < 5 |
| CN[C@@H](C)C(=O)N[C@H]1CN(C(=O)NCCCCCCNC(=O)N2CC[C@H]3CC[C@@H](C(=O)NCCc4ccccc4)N3C(=O)[C@@H](NC(=O)[C@H](C)NC)C2)CC[C@H]2CCC(C(=O)NCCc3ccccc3)N2C1=O (some centres not stated) | < 1 | < 1 | < 5 |
| CN[C@@H](C)C(=O)N[C@H]1CN(C(=O)Nc2ccc(NC(=O)N3CC[C@H]4CC[C@@H](C(=O)N[C@H]5C[C@@H]5c5ccc(C(F)(F)F)c(F)c5)N4C(=O)[C@@H](NC(=O)[C@H](C)NC)C3)cc2)CC[C@H]2CC[C@@H](C(=O)N[C@H]3C[C@@H]3c3ccc(C(F)(F)F)c(F)c3)N2C1=O | < 3 | < 3 | < 3 |
| CN[C@@H](C)C(=O)N[C@H]1CN(C(=O)Nc2ccc(Cc3ccc(NC(=O)N4CC[C@H]5CC[C@@H](C(=O)N[C@H]6C[C@@H]6c6ccccc6)N5C(=O)[C@@H](NC(=O)[C@H](C)NC)C4)cc3)cc2)CC[C@H]2CCC(C(=O)N[C@H]3C[C@@H]3c3ccccc3)N2C1=O (some centres not stated) | < 3 | < 1 | < 3 |
| CN[C@@H](C)C(=O)N[C@H]1CN(C(=O)Nc2ccc(NC(=O)N3CC[C@H]4CC[C@@H](C(=O)N[C@H]5CCC[C@H]5c5ccccc5)N4C(=O)[C@@H](NC(=O)[C@H](C)NC)C3)cc2)CC[C@H]2CC[C@@H](C(=O)N[C@H]3CCC[C@H]3c3ccccc3)N2C1=O | < 1 | < 1 | < 1 |
| CN[C@@H](C)C(=O)N[C@H]1CN(C(=O)NCCCCCCNC(=O)N2CC[C@H]3CC[C@@H](C(=O)N[C@H]4CCC[C@H]4c4ccccc4)N3C(=O)[C@@H](NC(=O)[C@H](C)NC)C2)CC[C@H]2CCC(C(=O)N[C@H]3CCC[C@H]3c3ccccc3)N2C1=O (some centres not stated) | < 3 | < 1 | < 3 |
| CN[C@@H](C)C(=O)N[C@H]1CN(C(=O)NCCCCCCNC(=O)N2CC[C@H]3CC[C@@H](C(=O)N[C@H]4CC[C@@H]4c4ccccc4)N3C(=O)[C@@H](NC(=O)[C@H](C)NC)C2)CC[C@H]2CCC(C(=O)N[C@H]3CC[C@@H]3c3ccccc3)N2C1=O (some centres not stated) | < 1 | < 1 | < 1 |
| CN[C@@H](C)C(=O)N[C@H]1CN(C(=O)Nc2ccc(CCc3ccc(NC(=O)N4CC[C@H]5CC[C@@H](C(=O)NC(c6ccccc6)c6ccccc6)N5C(=O)[C@@H](NC(=O)[C@H](C)NC)C4)cc3)cc2)CC[C@H]2CCC(C(=O)NC(c3ccccc3)c3ccccc3)N2C1=O (some centres not stated) | < 0.3 | < 0.03 | < 0.3 |
| CN[C@@H](C)C(=O)N[C@H]1CN(C(=O)Nc2ccc(NC(=O)N3CC[C@H]4CC[C@@H](C(=O)N[C@H]5C[C@@H]5c5ccccc5F)N4C(=O)[C@@H](NC(=O)[C@H](C)NC)C3)cc2)CC[C@H]2CC[C@@H](C(=O)N[C@H]3C[C@@H]3c3ccccc3F)N2C1=O | < 1 | < 1 | < 1 |
